Laboratory results reported in the supplement of paper PMC6411743.

Compound: Nc1ncnc2c1ncn2[C@@H]1O[C@H](COP(=O)(O)OP(=O)(O)OP(=O)(O)O)[C@@H](O)[C@H]1O [adenosine triphosphate]
Assay: pEC50 of ATP-induced change in protein thermal stability (2D-TPP)
Experimental: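 2D thermal proteome profiling in mechanically disrupted Jurkat crude lysate. Lysate was treated 10 min at room temperature with Na-ATP (0, 0.005, 0.05, 0.5, 2 mM), heated to 12 temperatures (42-63.9 °C) for 3 min, and soluble protein was quantified by TMT10 LC-MS/MS. pEC50 is the median over replicates of dose-response fits at the lowest temperature showing a fold change of at least 1.5 (FDR-controlled hits).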

UniProt Q7Z6Z7, sequence (Q7Z6Z7 whole entry): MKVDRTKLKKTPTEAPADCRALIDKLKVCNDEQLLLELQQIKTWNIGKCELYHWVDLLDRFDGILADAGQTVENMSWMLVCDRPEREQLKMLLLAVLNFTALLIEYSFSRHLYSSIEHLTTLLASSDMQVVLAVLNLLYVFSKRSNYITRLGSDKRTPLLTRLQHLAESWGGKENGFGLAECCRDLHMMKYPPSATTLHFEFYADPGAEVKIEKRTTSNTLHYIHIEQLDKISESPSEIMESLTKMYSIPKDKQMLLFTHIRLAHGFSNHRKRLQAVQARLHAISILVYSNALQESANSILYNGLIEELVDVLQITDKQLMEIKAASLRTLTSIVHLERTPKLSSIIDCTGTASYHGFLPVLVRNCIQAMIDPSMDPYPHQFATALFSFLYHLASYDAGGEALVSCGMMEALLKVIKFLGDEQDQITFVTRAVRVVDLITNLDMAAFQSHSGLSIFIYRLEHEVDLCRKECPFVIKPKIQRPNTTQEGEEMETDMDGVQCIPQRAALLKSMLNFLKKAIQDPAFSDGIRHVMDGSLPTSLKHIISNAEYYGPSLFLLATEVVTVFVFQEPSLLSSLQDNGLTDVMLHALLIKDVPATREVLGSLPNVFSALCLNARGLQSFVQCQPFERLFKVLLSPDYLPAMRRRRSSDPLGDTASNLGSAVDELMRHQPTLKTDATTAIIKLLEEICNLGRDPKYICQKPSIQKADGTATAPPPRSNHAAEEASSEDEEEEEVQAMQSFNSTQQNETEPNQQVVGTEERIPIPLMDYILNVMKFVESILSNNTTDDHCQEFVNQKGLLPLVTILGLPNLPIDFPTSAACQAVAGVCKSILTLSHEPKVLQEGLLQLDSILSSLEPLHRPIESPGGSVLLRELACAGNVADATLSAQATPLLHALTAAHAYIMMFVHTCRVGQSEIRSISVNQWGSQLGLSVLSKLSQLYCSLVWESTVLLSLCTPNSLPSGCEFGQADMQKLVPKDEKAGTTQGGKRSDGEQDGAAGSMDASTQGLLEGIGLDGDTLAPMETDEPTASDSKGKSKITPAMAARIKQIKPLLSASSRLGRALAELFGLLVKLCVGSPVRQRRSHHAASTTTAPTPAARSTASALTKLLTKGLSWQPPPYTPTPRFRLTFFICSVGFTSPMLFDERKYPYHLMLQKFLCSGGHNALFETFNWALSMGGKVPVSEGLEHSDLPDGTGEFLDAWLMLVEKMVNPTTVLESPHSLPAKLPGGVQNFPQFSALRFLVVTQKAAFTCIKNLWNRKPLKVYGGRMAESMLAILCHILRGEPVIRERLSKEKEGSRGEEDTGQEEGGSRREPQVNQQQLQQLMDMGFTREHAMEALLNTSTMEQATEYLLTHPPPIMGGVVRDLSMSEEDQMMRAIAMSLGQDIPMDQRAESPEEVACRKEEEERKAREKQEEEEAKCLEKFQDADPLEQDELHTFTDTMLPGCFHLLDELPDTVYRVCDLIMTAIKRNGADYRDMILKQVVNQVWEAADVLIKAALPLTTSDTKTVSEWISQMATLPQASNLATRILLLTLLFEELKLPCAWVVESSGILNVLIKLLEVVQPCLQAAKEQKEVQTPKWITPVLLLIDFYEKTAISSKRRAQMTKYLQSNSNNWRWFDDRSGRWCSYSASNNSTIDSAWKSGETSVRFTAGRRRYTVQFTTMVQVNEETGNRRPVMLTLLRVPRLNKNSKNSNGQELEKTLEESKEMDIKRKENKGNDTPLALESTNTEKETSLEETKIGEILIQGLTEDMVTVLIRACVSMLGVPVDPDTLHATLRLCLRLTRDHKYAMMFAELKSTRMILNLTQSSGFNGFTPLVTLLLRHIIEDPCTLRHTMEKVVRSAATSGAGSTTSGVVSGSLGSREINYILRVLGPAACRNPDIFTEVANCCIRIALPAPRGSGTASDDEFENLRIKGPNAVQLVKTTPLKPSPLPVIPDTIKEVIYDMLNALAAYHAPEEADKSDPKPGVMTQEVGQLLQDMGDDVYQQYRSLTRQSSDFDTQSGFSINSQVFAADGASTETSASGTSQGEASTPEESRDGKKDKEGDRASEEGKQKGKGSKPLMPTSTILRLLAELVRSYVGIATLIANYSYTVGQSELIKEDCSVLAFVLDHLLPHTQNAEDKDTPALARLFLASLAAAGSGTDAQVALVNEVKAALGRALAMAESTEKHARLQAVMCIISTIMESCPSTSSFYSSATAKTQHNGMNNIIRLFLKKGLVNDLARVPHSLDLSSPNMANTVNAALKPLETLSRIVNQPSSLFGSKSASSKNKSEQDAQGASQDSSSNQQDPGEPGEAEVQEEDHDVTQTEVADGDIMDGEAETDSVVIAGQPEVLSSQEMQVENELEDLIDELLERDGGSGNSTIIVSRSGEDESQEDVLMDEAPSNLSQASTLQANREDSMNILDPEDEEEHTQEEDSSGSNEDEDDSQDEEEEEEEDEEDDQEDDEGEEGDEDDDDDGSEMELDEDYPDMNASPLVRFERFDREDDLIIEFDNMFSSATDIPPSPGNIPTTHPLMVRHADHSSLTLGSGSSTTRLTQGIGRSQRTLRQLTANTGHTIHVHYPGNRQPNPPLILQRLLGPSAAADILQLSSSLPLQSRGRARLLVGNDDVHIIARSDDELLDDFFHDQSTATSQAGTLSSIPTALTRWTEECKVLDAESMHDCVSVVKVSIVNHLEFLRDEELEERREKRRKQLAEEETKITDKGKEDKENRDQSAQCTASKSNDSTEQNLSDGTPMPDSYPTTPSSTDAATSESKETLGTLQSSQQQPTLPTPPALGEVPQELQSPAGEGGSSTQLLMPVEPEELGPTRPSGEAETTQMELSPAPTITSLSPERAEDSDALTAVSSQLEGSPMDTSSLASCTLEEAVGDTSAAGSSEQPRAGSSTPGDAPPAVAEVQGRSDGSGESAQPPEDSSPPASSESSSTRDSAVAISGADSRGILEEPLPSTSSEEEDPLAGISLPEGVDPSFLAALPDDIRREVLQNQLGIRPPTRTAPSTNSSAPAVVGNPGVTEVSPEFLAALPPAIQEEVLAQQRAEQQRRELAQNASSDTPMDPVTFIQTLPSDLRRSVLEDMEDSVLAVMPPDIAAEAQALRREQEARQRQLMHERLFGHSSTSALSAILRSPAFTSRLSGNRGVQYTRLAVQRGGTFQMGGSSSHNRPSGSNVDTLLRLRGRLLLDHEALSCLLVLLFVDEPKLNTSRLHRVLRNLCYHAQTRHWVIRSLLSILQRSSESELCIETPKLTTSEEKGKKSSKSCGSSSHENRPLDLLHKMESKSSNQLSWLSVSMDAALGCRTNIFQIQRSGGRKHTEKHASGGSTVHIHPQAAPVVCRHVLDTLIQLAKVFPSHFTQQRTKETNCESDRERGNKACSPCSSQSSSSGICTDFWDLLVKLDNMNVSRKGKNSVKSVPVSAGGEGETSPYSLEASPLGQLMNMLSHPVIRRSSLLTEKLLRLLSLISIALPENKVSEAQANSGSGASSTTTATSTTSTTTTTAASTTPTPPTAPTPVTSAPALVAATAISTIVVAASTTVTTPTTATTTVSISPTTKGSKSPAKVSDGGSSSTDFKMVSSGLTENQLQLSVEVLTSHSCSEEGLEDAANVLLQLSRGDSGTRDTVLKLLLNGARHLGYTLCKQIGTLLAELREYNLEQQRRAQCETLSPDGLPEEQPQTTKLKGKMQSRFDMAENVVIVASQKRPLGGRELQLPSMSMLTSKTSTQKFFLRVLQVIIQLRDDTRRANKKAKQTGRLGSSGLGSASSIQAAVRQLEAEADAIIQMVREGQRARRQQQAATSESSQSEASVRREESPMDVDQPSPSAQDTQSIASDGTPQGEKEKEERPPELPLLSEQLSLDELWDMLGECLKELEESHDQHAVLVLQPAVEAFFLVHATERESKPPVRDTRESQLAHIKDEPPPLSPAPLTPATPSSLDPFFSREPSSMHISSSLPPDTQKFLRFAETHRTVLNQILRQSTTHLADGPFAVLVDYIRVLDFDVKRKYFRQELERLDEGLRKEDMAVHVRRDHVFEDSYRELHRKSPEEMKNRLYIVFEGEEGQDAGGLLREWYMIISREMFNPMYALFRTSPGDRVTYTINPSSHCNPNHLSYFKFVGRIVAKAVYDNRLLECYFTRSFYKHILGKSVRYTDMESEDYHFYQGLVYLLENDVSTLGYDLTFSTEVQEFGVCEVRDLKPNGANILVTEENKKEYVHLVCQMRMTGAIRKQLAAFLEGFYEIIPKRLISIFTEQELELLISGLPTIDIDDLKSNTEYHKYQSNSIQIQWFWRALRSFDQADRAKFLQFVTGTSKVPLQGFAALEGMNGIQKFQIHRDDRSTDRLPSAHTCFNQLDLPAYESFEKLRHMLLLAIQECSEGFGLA
UniProt P06396, sequence (P06396 whole entry): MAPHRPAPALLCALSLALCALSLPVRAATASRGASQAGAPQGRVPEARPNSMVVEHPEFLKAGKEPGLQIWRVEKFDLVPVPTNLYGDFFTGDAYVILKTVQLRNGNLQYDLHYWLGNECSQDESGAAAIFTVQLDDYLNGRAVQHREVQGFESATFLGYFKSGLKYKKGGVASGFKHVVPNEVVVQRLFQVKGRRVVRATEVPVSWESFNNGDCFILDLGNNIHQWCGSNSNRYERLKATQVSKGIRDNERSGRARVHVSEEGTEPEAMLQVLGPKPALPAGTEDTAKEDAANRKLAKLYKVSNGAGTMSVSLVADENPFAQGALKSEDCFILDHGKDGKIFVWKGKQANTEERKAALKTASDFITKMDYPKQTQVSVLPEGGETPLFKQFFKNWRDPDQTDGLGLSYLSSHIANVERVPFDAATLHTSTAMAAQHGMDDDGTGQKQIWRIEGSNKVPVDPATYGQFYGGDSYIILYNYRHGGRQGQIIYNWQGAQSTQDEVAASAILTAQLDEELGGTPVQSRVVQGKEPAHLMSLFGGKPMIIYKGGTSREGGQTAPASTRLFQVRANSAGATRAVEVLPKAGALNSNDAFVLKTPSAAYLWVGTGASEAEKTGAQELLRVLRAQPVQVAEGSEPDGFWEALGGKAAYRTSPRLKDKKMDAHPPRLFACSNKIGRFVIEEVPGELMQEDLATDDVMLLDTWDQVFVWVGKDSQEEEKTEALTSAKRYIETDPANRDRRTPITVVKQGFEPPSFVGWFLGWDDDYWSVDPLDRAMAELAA

| Target | pEC50 |
| --- | --- |
| FKBP5 (effect direction: stabilized) (UniProt Q13451) | < 2.7 |
| FN3KRP (effect direction: stabilized) (UniProt Q9HA64) | 4.17 |
| FOXK1 (effect direction: stabilized) (UniProt P85037) | 3.36 |
| FOXK2 (effect direction: stabilized) (UniProt Q01167) | 3.76 |
| FUCA1 (effect direction: destabilized) (UniProt P04066) | > 5.3 |
| G6PD (effect direction: stabilized) (UniProt P11413) | < 2.7 |
| GAPDH (effect direction: stabilized) (UniProt P04406) | < 2.7 |
| GART (effect direction: stabilized) (UniProt P22102) | 4.88 |
| GGPS1 (effect direction: destabilized) (UniProt O95749) | 2.94 |
| GLA (effect direction: stabilized) (UniProt P06280) | 3.03 |
| GLB1 (effect direction: stabilized) (UniProt P16278) | 3.35 |
| GLRX3 (effect direction: stabilized) (UniProt O76003) | < 2.7 |
| GPD1L (effect direction: stabilized) (UniProt Q8N335) | 3.09 |
| GPKOW (effect direction: stabilized) (UniProt Q92917) | 3.19 |
| GPN1 (effect direction: destabilized) (UniProt Q9HCN4) | 2.83 |
| GPN3 (effect direction: destabilized) (UniProt Q9UHW5) | 2.74 |
| GRAMD4 (effect direction: stabilized) (UniProt Q6IC98) | 3.13 |
| GRSF1 (effect direction: stabilized) (UniProt Q12849) | 2.83 |
| GTF3A (effect direction: stabilized) (UniProt Q92664) | 3.03 |
| GYS1 (effect direction: destabilized) (UniProt P13807) | 5.03 |
| H1FX (effect direction: destabilized) (UniProt Q92522) | < 2.7 |
| HEATR3 (effect direction: stabilized) (UniProt Q7Z4Q2) | 2.83 |
| HEXB (effect direction: stabilized) (UniProt P07686) | 3.01 |
| HIST1H1B (effect direction: destabilized) (UniProt P16401) | < 2.7 |
| HIST1H1C (effect direction: destabilized) (UniProt P16403) | 4.05 |
| HLTF (effect direction: stabilized) (UniProt Q14527) | 4.11 |
| HMGN4 (effect direction: stabilized) (UniProt O00479) | 3.52 |

| Target | pEC50 |
| --- | --- |
| HNRNPH1 (effect direction: stabilized) (UniProt P31943) | 2.93 |
| HNRNPR (effect direction: stabilized) (UniProt O43390) | 3.04 |
| HNRNPUL2 (effect direction: stabilized) (UniProt Q1KMD3) | 3.39 |
| HSD17B7 (effect direction: stabilized) (UniProt P56937) | 3.22 |
| HSP90AA1 (effect direction: stabilized) (UniProt P07900) | > 5.3 |
| HSP90AB1 (effect direction: stabilized) (UniProt P08238) | < 2.7 |
| HSPA4 (effect direction: stabilized) (UniProt P34932) | < 2.7 |
| HSPA9 (effect direction: stabilized) (UniProt P38646) | 3.94 |
| HSPA14 (effect direction: stabilized) (UniProt Q0VDF9) | 2.8 |
| HTATSF1 (effect direction: stabilized) (UniProt O43719) | < 2.7 |
| HUWE1 (effect direction: stabilized) (UniProt Q7Z6Z7) | < 2.7 |
| IKBKG (effect direction: stabilized) (UniProt Q9Y6K9) | 3.42 |
| ILF3 (effect direction: stabilized) (UniProt Q12906) | 3.13 |
| ILKAP (effect direction: stabilized) (UniProt Q9H0C8) | < 2.7 |
| IMPA2 (effect direction: destabilized) (UniProt O14732) | < 2.7 |
| IPO9 (effect direction: destabilized) (UniProt Q96P70) | 3.67 |
| IRAK4 (effect direction: stabilized) (UniProt Q9NWZ3) | 3.3 |
| ITPR2 (effect direction: stabilized) (UniProt Q14571) | 3.28 |
| KATNAL1 (effect direction: stabilized) (UniProt Q9BW62) | 3.26 |
| KIF1B (effect direction: stabilized) (UniProt O60333) | 3.68 |
| KIF2C (effect direction: stabilized) (UniProt Q99661) | 4.18 |
| KIF3B (effect direction: stabilized) (UniProt O15066) | 4.07 |
| KIF11 (effect direction: stabilized) (UniProt P52732) | 3.26 |
| KLC1 (effect direction: stabilized) (UniProt Q07866) | 3.95 |
| KLC2 (effect direction: stabilized) (UniProt Q9H0B6) | 4.06 |
| KLHDC4 (effect direction: stabilized) (UniProt Q8TBB5) | < 2.7 |

Results, then the target that gave them:

| pEC50 | Target |
| --- | --- |
| < 2.7 | FKBP4 (effect direction: stabilized) (UniProt Q02790) |
| 3.36 | FKBP8 (effect direction: stabilized) (UniProt Q14318) |
| 3.22 | FNTA (effect direction: stabilized) (UniProt P49354) |
| 3.22 | FTSJ3 (effect direction: destabilized) (UniProt Q8IY81) |
| < 2.7 | GLO1 (effect direction: destabilized) (UniProt Q04760) |
| < 2.7 | GLOD4 (effect direction: stabilized) (UniProt Q9HC38) |
| 4.21 | GLUD1 (effect direction: stabilized) (UniProt P00367) |
| < 2.7 | GNAS (effect direction: stabilized) (UniProt P63092) |
| 3.16 | GNE (effect direction: stabilized) (UniProt Q9Y223) |
| < 2.7 | GPS1 (effect direction: stabilized) (UniProt Q13098) |
| 3.54 | GRAP (effect direction: stabilized) (UniProt Q13588) |
| 4.04 | GRPEL1 (effect direction: destabilized) (UniProt Q9HAV7) |
| 2.94 | GSN (effect direction: stabilized) (UniProt P06396) |
| 3.56 | GSS (effect direction: stabilized) (UniProt P48637) |
| < 2.7 | GSTO1 (effect direction: stabilized) (UniProt P78417) |
| 3.26 | GTF2B (effect direction: stabilized) (UniProt Q00403) |
| 3.28 | GTF2I (effect direction: stabilized) (UniProt P78347) |
| 3.28 | GTPBP1 (effect direction: stabilized) (UniProt O00178) |
| 3.22 | HEXA (effect direction: stabilized) (UniProt P06865) |

| pEC50 | Target |
| --- | --- |
| < 2.7 | HNRNPF (effect direction: stabilized) (UniProt P52597) |
| 3.23 | HNRNPL (effect direction: stabilized) (UniProt P14866) |
| 2.9 | HNRNPU (effect direction: stabilized) (UniProt Q00839) |
| 3.24 | HSD17B10 (effect direction: stabilized) (UniProt Q99714) |
| 4.09 | HSPA8 (effect direction: stabilized) (UniProt P11142) |
| < 2.7 | IDH3A (effect direction: stabilized) (UniProt P50213) |
| 3.32 | IMPDH1 (effect direction: stabilized) (UniProt P20839) |
| < 2.7 | IPO5 (effect direction: stabilized) (UniProt O00410) |
| 3.65 | IQGAP1 (effect direction: destabilized) (UniProt P46940) |
| 2.74 | ISG15 (effect direction: stabilized) (UniProt P05161) |
| 3.89 | ITPK1 (effect direction: stabilized) (UniProt Q13572) |
| 3.3 | JAKMIP1 (effect direction: stabilized) (UniProt Q96N16) |
| 3.21 | JMJD6 (effect direction: stabilized) (UniProt Q6NYC1) |
| 3.42 | KATNA1 (effect direction: stabilized) (UniProt O75449) |
| 4.09 | KIF5B (effect direction: stabilized) (UniProt P33176) |
| 3.11 | KIF15 (effect direction: stabilized) (UniProt Q9NS87) |
| 3.14 | KIF20A (effect direction: stabilized) (UniProt O95235) |
| 3.38 | KIF21B (effect direction: stabilized) (UniProt O75037) |
